Source: patent publication US11814405B2, “Pyridine sulfonamide phosphate compound, preparation method therefor, and use thereof” (Shanghai Xunhe Pharmaceutical Technology Co. Ltd., priority 2019, dated 2023)
“Also recorded” adds a separate entry of the source.

Assays:
[1] = Comparison of water solubility; conditions: for Phenomenon: at the API:water ratio given
[2] = active metabolite in vivo, compared with torsemide (Drugs 41 (1): 81-103, 1991); cited from earlier work
[3] = cited from earlier work
[4] = system: Male SD rats; test: Comparison of diuretic effects: urine output in saline-loaded rats; format: in vivo, rat; conditions: 10 mg/kg, ig, after 30 mL/kg normal saline, urine collected for 4 h
Experimental: Male SD rats (body weight: 180±20 g) were randomly divided into 14 groups with 3 rats in each group. Each rat was administrated 30 mL/kg normal saline through intragastric administration. After intragastric administration of normal saline, except the blank control group, each group was administrated one drug (10 mg/kg, ig, 1 mg/mL, formulation prescription: normal saline dissolution). Urination for 4 h was collected.

SMILES | Phenomenon [1] | Conclusion (water solubility) [1] | pharmacological activity [2] | solubility in water [3] | Urine output [4] [mL/kg] | solubility in 0.1 mol/L sodium hydroxide solution ([3]; 0.1 mol/L sodium hydroxide solution)
Cc1cc(Nc2ccncc2S(=O)(=O)NC(=O)NC(C)C)ccc1O [Compound M3] | Completely dissolved | Slightly soluble | comparable to torsemide | has not been effectively improved | 107.2 | 
Cc1cccc(Nc2ccncc2S(=O)(=O)NC(=O)NC(C)C)c1 [Torsemide, 1-[4-(3-methylphenyl)aminopyridin-3-yl]sulfonyl-3-isopropylurea] | Completely dissolved | Very slightly |  | almost insoluble in water; also recorded: very slightly soluble in water | 105.3 | slightly soluble
